The values below are quoted from earlier work in patent EP1214078B1, “FORMULATIONS FOR PARENTERAL USE OF ES[…] AND AMINO ACIDS” (priority 1999, dated 2001).

The conditions of the data set: patients, slow intravenous injection or bolus, 300 mg/day.

For the compound `C[C@]12CC[C@@H]3c4ccc(OC(=O)N(CCCl)CCCl)cc4CC[C@H]3[C@@H]1CC[C@@H]2OP(=O)(O)O` [estramustine phosphate, Estramustine phosphate], the “side effects at the peripheral intravenous injection sites” value is “thrombophlebitis and local irritations”.
